Assay results taken from patent US9403813B2, “Azetidine amide derivatives as orexin receptor antagonists” (ACTELION PHARMACEUTICALS LTD, priority 2013, dated 2016).

Legend:
human orexin-1 receptor = human orexin-1 receptor (Homo sapiens (Human), UniProt O43613); assay: Intracellular calcium measurements (FLIPR), antagonism of orexin-A response; type: cell-based; conditions: CHO cells expressing human orexin-1 receptor, 3 nM orexin-A, geometric mean if determined several times, read-out: IC50 OX1
human orexin-1 receptor, sequence (O43613 whole entry): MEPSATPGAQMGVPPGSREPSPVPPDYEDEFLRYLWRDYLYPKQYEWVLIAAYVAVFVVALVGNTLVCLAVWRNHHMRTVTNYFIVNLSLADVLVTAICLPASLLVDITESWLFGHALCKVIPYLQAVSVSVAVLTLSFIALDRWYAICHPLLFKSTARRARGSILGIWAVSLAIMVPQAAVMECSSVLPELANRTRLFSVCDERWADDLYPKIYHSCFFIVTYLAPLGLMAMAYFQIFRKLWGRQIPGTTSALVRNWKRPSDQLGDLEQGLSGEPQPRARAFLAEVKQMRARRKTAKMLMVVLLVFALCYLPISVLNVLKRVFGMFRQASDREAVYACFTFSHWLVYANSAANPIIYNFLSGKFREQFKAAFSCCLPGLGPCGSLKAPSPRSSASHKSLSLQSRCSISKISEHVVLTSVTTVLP
Procedure: (§1) Antagonistic activities on both orexin receptors have been measured for each example compound using the following procedure:
(§2) In Vitro Assay: Intracellular Calcium Measurements:
(§3) Chinese hamster ovary (CHO) cells expressing the human orexin-1 receptor and the human orexin-2 receptor, respectively, are grown in culture medium (Ham F-12 with L-Glutamine) containing 300 μg/mL G418, 100 U/mL penicillin, 100 μg/mL streptomycin and 10% heat inactivated fetal calf serum (FCS). The cells are seeded at 20,000 cells/well into 384-well black clear bottom sterile plates (Greiner). The seeded plates are incubated overnight at 37° C. in 5% CO2. Human orexin-A as an agonist is prepared as 1 mM stock solution in MeOH:water (1:1), diluted in HBSS containing 0.1% bovine serum albumin (BSA), NaHCO3: 0.375 g/L and 20 mM HEPES for use in the assay at a final concentration of 3 nM.
(§4) Antagonists are prepared as 10 mM stock solution in DMSO, then diluted in 384-well plates using DMSO followed by a transfer of the dilutions into in HBSS containing 0.1% bovine serum albumin (BSA), NaHCO3: 0.375 g/L and 20 mM HEPES. On the day of the assay, 50 μL of staining buffer (HBSS containing 1% FCS, 20 mM HEPES, NaHCO3: 0.375 g/L, 5 mM probenecid (Sigma) and 3 μM of the fluorescent calcium indicator fluo-4 AM (1 mM stock solution in DMSO, containing 10% pluronic) is added to each well. The 384-well cell-plates are incubated for 50 min at 37° C. in 5% CO2 followed by equilibration at rt for 30 min before measurement.
(§5) Within the Fluorescent Imaging Plate Reader (FLIPR Tetra, Molecular Devices), antagonists are added to the plate in a volume of 10 μL/well, incubated for 120 min and finally 10 μL/well of agonist is added. Fluorescence is measured for each well at 1 second intervals, and the height of each fluorescence peak is compared to the height of the fluorescence peak induced by 3 nM orexin-A with vehicle in place of antagonist. The IC50 value (the concentration of compound needed to inhibit 50% of the agonistic response) is determined and may be normalized using the obtained IC50 value of an on-plate reference compound. Optimized conditions were achieved by adjustment of pipetting speed and cell splitting regime. The calculated IC50 values may fluctuate depending on the daily cellular assay performance. Fluctuations of this kind are known to those skilled in the art. In the case where IC50 values have been determined several times for the same compound, the geometric mean has been given.

human orexin-2 receptor = human orexin-2 receptor (Homo sapiens (Human), UniProt O43614); assay: as above; type: cell-based; conditions: CHO cells expressing human orexin-2 receptor, 3 nM orexin-A, geometric mean if determined several times, read-out: IC50 OX2
human orexin-2 receptor, sequence (O43614 whole entry): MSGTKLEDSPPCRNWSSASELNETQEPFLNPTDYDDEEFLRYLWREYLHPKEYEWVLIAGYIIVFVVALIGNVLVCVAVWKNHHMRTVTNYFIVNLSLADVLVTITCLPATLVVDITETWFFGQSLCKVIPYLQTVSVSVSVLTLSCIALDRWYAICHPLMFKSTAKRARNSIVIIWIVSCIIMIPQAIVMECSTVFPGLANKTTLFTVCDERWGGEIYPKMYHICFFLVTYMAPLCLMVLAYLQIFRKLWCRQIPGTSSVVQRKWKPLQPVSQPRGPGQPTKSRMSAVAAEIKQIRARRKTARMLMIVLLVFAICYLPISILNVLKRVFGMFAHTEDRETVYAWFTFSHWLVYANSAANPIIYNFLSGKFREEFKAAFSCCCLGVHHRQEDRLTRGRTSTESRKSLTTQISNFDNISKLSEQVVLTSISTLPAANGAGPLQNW
Procedure: as §1, §2, §3, §4, §5

Row | SMILES | IC50 (human orexin-1 receptor) | IC50 (human orexin-2 receptor)
1 | Cc1c(Cl)cccc1-c1nc([C@@H]2CCN2C(=O)c2ccccc2-n2nccn2)no1 [Example 100, {(S)-2-[5-(3-Chloro-2-methyl-phenyl)-[1,2,4]oxadiazol-3-yl]-azetidin-1-yl}-(2-[1,2,3]triazol-2-yl-phenyl)-methanone] | 820 nM | 34 nM
2 | Cc1ccc(-n2nccn2)c(C(=O)N2CC[C@H]2c2noc(-c3cccc(F)c3C)n2)c1 [Example 93, {(S)-2-[5-(3-Fluoro-2-methyl-phenyl)-[1,2,4]oxadiazol-3-yl]-azetidin-1-yl}-(5-methyl-2-[1,2,3]triazol-2-yl-phenyl)-methanone] | 655 nM | 8 nM
3 | Cc1ccc(-n2nccn2)c(C(=O)N2CC[C@H]2c2nc(-c3ccc(F)c(F)c3)no2)c1 [Example 12, {(S)-2-[3-(3,4-Difluoro-phenyl)-[1,2,4]oxadiazol-5-yl]-azetidin-1-yl}-(5-methyl-2-[1,2,3]triazol-2-yl-phenyl)-methanone] | 2490 nM | 187 nM
4 | Cc1ccc(C(=O)N2CC[C@H]2c2nc(-c3cccc(Cl)c3C)no2)c(-n2nccn2)c1 [Example 78, {(S)-2-[3-(3-Chloro-2-methyl-phenyl)-[1,2,4]oxadiazol-5-yl]-azetidin-1-yl}-(4-methyl-2-[1,2,3]triazol-2-yl-phenyl)-methanone] | 646 nM | 22 nM
5 | Cc1ccc(-n2nccn2)c(C(=O)N2CC[C@H]2c2nc(-c3ccccc3C)no2)c1 [Example 1, (5-Methyl-2-[1,2,3]triazol-2-yl-phenyl)-[(S)-2-(3-o-tolyl-[1,2,4]oxadiazol-5-yl)-azetidin-1-yl]-methanone] | 1220 nM | 19 nM
6 | Cc1cccc(-c2oc(C)nc2C(=O)N2CC[C@H]2c2nc(-c3ccccc3OC(F)(F)F)no2)c1 [Example 52, (2-Methyl-5-m-tolyl-oxazol-4-yl)-{(S)-2-[3-(2-trifluoromethoxy-phenyl)-[1,2,4]oxadiazol-5-yl]-azetidin-1-yl}-methanone] | 357 nM | 309 nM
7 | Cc1nc(C(=O)N2CC[C@H]2c2nc(-c3ccccc3OC(F)(F)F)no2)c(-c2ccccc2)s1 [Example 40, (2-Methyl-5-phenyl-thiazol-4-yl)-{(S)-2-[3-(2-trifluoromethoxy-phenyl)-[1,2,4]oxadiazol-5-yl]-azetidin-1-yl}-methanone] | 221 nM | 41 nM
8 | Cc1cccc(-c2sc(C)nc2C(=O)N2CC[C@H]2c2nc(-c3ccccc3OC(F)(F)F)no2)c1 [Example 38, (2-Methyl-5-m-tolyl-thiazol-4-yl)-{(S)-2-[3-(2-trifluoromethoxy-phenyl)-[1,2,4]oxadiazol-5-yl]-azetidin-1-yl}-methanone] | 322 nM | 119 nM
9 | Cc1c(Cl)cccc1-c1noc([C@@H]2CCN2C(=O)c2ccccc2-c2ccccc2)n1 [Example 73, Biphenyl-2-yl-{(S)-2-[3-(3-chloro-2-methyl-phenyl)-[1,2,4]oxadiazol-5-yl]-azetidin-1-yl}-methanone] | 383 nM | 20 nM
10 | Cc1c(Cl)cccc1-c1nc([C@@H]2CCN2C(=O)c2cc(F)ccc2-c2ncccn2)no1 [Example 115, {(S)-2-[5-(3-Chloro-2-methyl-phenyl)-[1,2,4]oxadiazol-3-yl]-azetidin-1-yl}-(5-fluoro-2-pyrimidin-2-yl-phenyl)-methanone] | 984 nM | 122 nM
11 | Cc1nc(C(=O)N2CC[C@H]2c2nc(-c3ccccc3OC(F)(F)F)no2)c(-c2ccccc2F)s1 [Example 37, [5-(2-Fluoro-phenyl)-2-methyl-thiazol-4-yl]-{(S)-2-[3-(2-trifluoromethoxy-phenyl)-[1,2,4]oxadiazol-5-yl]-azetidin-1-yl}-methanone] | 458 nM | 59 nM
12 | Cc1cc(-n2nccn2)c(C(=O)N2CC[C@H]2c2nnc(-c3ccccc3OC(F)(F)F)[nH]2)cc1Cl [Example 130, (5-Chloro-4-methyl-2-[1,2,3]triazol-2-yl-phenyl)-{(S)-2-[5-(2-trifluoromethoxy-phenyl)-4H-[1,2,4]triazol-3-yl]-azetidin-1-yl}-methanone] | 245 nM | 5 nM
13 | Cc1ccc(C(=O)N2CC[C@H]2c2nnc(-c3ccccc3OC(F)(F)F)[nH]2)c(-n2nccn2)c1 [Example 127, (4-Methyl-2-[1,2,3]triazol-2-yl-phenyl)-{(S)-2-[5-(2-trifluoromethoxy-phenyl)-4H-[1,2,4]triazol-3-yl]-azetidin-1-yl}-methanone] | 866 nM | 11 nM
14 | CCOc1ncccc1-c1nnc([C@@H]2CCN2C(=O)c2cc(C)ccc2-n2nccn2)[nH]1 [Example 122, {(S)-2-[5-(2-Ethoxy-pyridin-3-yl)-4H-[1,2,4]triazol-3-yl]-azetidin-1-yl}-(5-methyl-2-[1,2,3]triazol-2-yl-phenyl)-methanone] | 2300 nM | 92 nM
15 | Cc1cc(C(=O)N2CC[C@H]2c2nnc(-c3ccccc3OC(F)(F)F)[nH]2)c(-n2nccn2)cc1C [Example 128, (4,5-Dimethyl-2-[1,2,3]triazol-2-yl-phenyl)-{(S)-2-[5-(2-trifluoromethoxy-phenyl)-4H-[1,2,4]triazol-3-yl]-azetidin-1-yl}-methanone] | 414 nM | 9 nM

Now those with a lower IC50 (human orexin-1 receptor), led by results:

Row | IC50 (human orexin-1 receptor) | IC50 (human orexin-2 receptor) | SMILES
16 | 160 nM | 5 nM | Cc1cc(C(=O)N2CC[C@H]2c2nc(-c3ccccc3OC(F)(F)F)no2)c(-n2nccn2)cc1C [Example 18, (4,5-Dimethyl-2-[1,2,3]triazol-2-yl-phenyl)-{(S)-2-[3-(2-trifluoromethoxy-phenyl)-[1,2,4]oxadiazol-5-yl]-azetidin-1-yl}-methanone]
17 | 134 nM | 10 nM | CCOc1c(F)cccc1-c1noc([C@@H]2CCN2C(=O)c2cc(C)ccc2-n2nccn2)n1 [Example 9, {(S)-2-[3-(2-Ethoxy-3-fluoro-phenyl)-[1,2,4]oxadiazol-5-yl]-azetidin-1-yl}-(5-methyl-2-[1,2,3]triazol-2-yl-phenyl)-methanone]
18 | 116 nM | 15 nM | Cc1ccc(-n2nccn2)c(C(=O)N2CC[C@H]2c2nc(-c3ccccc3OC(F)(F)F)no2)c1 [Example 15, (5-Methyl-2-[1,2,3]triazol-2-yl-phenyl)-{(S)-2-[3-(2-trifluoromethoxy-phenyl)-[1,2,4]oxadiazol-5-yl]-azetidin-1-yl}-methanone]
19 | 103 nM | 11 nM | Cc1ccc(-n2nccn2)c(C(=O)N2CC[C@H]2c2noc(-c3ccccc3OC(F)(F)F)n2)c1 [Example 84, (5-Methyl-2-[1,2,3]triazol-2-yl-phenyl)-{(S)-2-[5-(2-trifluoromethoxy-phenyl)-[1,2,4]oxadiazol-3-yl]-azetidin-1-yl}-methanone]
20 | 70 nM | 1 nM | COc1cc(C(=O)N2CC[C@H]2c2noc(-c3cccc(Cl)c3OC)n2)c(-n2nccn2)cc1Cl [Example 112, {(S)-2-[5-(3-Chloro-2-methoxy-phenyl)-[1,2,4]oxadiazol-3-yl]-azetidin-1-yl}-(4-chloro-5-methoxy-2-[1,2,3]triazol-2-yl-phenyl)-methanone]
21 | 51 nM | 1 nM | COc1c(Cl)cccc1-c1nc([C@@H]2CCN2C(=O)c2cc(Cl)c(C)cc2-n2nccn2)no1 [Example 113, {(S)-2-[5-(3-Chloro-2-methoxy-phenyl)-[1,2,4]oxadiazol-3-yl]-azetidin-1-yl}-(5-chloro-4-methyl-2-[1,2,3]triazol-2-yl-phenyl)-methanone]
